Results: ChEMBL document CHEMBL3879893, “Nuclear transport modulators and uses thereof” (2011)
The source made the active and inactive calls. The calls are words filed in the database; no cut-off is given here.

Columns and labels:
NCI-H226 = assay: Cytotoxicity against human NCI-H226 cells after 72 hrs by CellTiter96 AQueous one solution cell proliferation assay; type: functional, cell-based
HeLa = assay: Cytotoxicity against human HeLa cells after 72 hrs by CellTiter96 AQueous one solution cell proliferation assay; type: functional, cell-based
HCT-116 = assay: Cytotoxicity against human HCT116 cells after 72 hrs by CellTiter96 AQueous one solution cell proliferation assay; type: functional, cell-based
Exportin-1 [1] = biological target: T1, Exportin-1 (Homo sapiens, UniProt O14980); assay: Inhibition of Crm1 in human HS-Sultan cells assessed as potentiation of bortezomib-induced antiproliferative activity by measuring cell survival at 30 to 300 nM after 72 hrs by MTT assay; type: cell-based
Exportin-1 [2] = biological target: T1, Exportin-1; assay: Inhibition of Crm1 in human Jurkat cells assessed as potentiation of bortezomib-induced antiproliferative activity by measuring cell survival at 30 to 300 nM after 72 hrs by MTT assay; type: cell-based
NCI-H1838 = assay: Cytotoxicity against human NCI-H1838 cells after 72 hrs by CellTiter96 AQueous one solution cell proliferation assay; type: functional, cell-based
RPMI18226 = assay: Cytotoxicity against human […] cells after 72 hrs by CellTiter96 AQueous one solution cell proliferation assay; type: functional, cell-based
MG-63 = assay: Cytotoxicity against human MG63 cells after 72 hrs by CellTiter96 AQueous one solution cell proliferation assay; type: functional, cell-based
786-0 = assay: Cytotoxicity against human 786-0 cells after 72 hrs by CellTiter96 AQueous one solution cell proliferation assay; type: functional, cell-based
[3] = Toxicity in mouse xenografted with 350 mm'3 human HCT116 cells assessed as effect on clinical chemistry parameters at 150 mg/kg, sc qd administered for 5 days started on day 9 post 75 mg/kg dosing; type: organism-based, HCT-116; conditions: in vivo, 120 h
Exportin-1 [4] = biological target: T1, Exportin-1; assay: Inhibition of Crm1 in human U2OS cells expressing GFP-fused HIV1 Rev assessed as decrease in nuclear export of GFP-fused HIV1 Rev after 1 hr by Hoechst 33258 staining-based assay; type: cell-based
4T1 = assay: Cytotoxicity against mouse 4T1 cells after 72 hrs by CellTiter96 AQueous one solution cell proliferation assay; type: functional, cell-based
DLD-1 = assay: Cytotoxicity against human DLD1 cells after 72 hrs by CellTiter96 AQueous one solution cell proliferation assay; type: functional, cell-based
Exportin-1 [5] = biological target: T1, Exportin-1; assay: Inhibition of Crm1 in human MM1R cells assessed as potentiation of bortezomib-induced antiproliferative activity by measuring cell survival at 30 to 300 nM after 72 hrs by MTT assay; type: cell-based
MM1R = assay: Cytotoxicity against human MM1R cells after 72 hrs by CellTiter96 AQueous one solution cell proliferation assay; type: functional, cell-based
MCF7 = assay: Cytotoxicity against human MCF7 cells after 72 hrs by CellTiter96 AQueous one solution cell proliferation assay; type: functional, cell-based
HS-Sultan = assay: Cytotoxicity against human HS-Sultan cells after 72 hrs by CellTiter96 AQueous one solution cell proliferation assay; type: functional, cell-based
[6] = Antitumor activity against 350 mm'3 human HCT116 cells xenografted in mouse assessed as tumor growth inhibition at 150 mg/kg, sc qd administered for 5 days started on day 9 post 75 mg/kg dosing measured after day 24 relative to control; type: functional, HCT-116
[7] = Antitumor activity against 350 mm'3 human HCT116 cells xenografted in mouse assessed as tumor growth inhibition at 75 mg/kg, sc qd administered for 5 days measured after day 24 relative to control; type: functional; conditions: HCT-116, sc, read-out: TGI
HCC4006 = assay: Cytotoxicity against human HCC4006 cells after 72 hrs by CellTiter96 AQueous one solution cell proliferation assay; type: functional, cell-based
MM1.S [8] = assay: Antitumor activity against 1300 mm'3 human MM1S cells xenografted in mouse assessed as tumor growth inhibition at 150 mg/kg, sc qd administered for 5 days; type: functional, organism-based
NCI-H460 = assay: Cytotoxicity against human NCI-H460 cells after 72 hrs by CellTiter96 AQueous one solution cell proliferation assay; type: functional, cell-based
COLO 320 = assay: Cytotoxicity against human COLO320 cells after 72 hrs by CellTiter96 AQueous one solution cell proliferation assay; type: functional, cell-based
Homo sapiens [9] = species on record: Homo sapiens; assay: Cytotoxicity against human H2935 cells after 72 hrs by CellTiter96 AQueous one solution cell proliferation assay; type: functional, cell-based
HPAC = assay: Cytotoxicity against human HPAC cells after 72 hrs by CellTiter96 AQueous one solution cell proliferation assay; type: functional, cell-based
HCT-15 = assay: Cytotoxicity against human HCT15 cells after 72 hrs by CellTiter96 AQueous one solution cell proliferation assay; type: functional, cell-based
SW-620 = assay: Cytotoxicity against human SW620 cells after 72 hrs by CellTiter96 AQueous one solution cell proliferation assay; type: functional, cell-based
WiDr = assay: Cytotoxicity against human WiDr cells after 72 hrs by CellTiter96 AQueous one solution cell proliferation assay; type: functional, cell-based
HCT-8 = assay: Cytotoxicity against human HCT8 cells after 72 hrs by CellTiter96 AQueous one solution cell proliferation assay; type: functional, cell-based
PC-3 = assay: Cytotoxicity against human PC3 cells after 72 hrs by CellTiter96 AQueous one solution cell proliferation assay; type: functional, cell-based
Jurkat = assay: Cytotoxicity against human Jurkat cells after 72 hrs by CellTiter96 AQueous one solution cell proliferation assay; type: functional, cell-based
Homo sapiens [10] = species on record: Homo sapiens; assay: Cytotoxicity against human LS123 cells after 72 hrs by CellTiter96 AQueous one solution cell proliferation assay; type: functional, cell-based
MM1.S [11] = assay: Antitumor activity against 130 mm'3 human MM1S cells xenografted in mouse assessed as tumor growth inhibition at 150 mg/kg, sc qd administered for 5 days; type: functional, organism-based
BL-41 = assay: Cytotoxicity against human BL41 cells after 72 hrs by CellTiter96 AQueous one solution cell proliferation assay; type: functional, cell-based
LS180 = assay: Cytotoxicity against human LS180 cells after 72 hrs by CellTiter96 AQueous one solution cell proliferation assay; type: functional, cell-based
SW480 = assay: Cytotoxicity against human SW480 cells after 72 hrs by CellTiter96 AQueous one solution cell proliferation assay; type: functional, cell-based
NCI-H520 = assay: Cytotoxicity against human NCI-H520 cells after 72 hrs by CellTiter96 AQueous one solution cell proliferation assay; type: functional, cell-based
[12] = Toxicity in mouse xenografted with 350 mm'3 human HCT116 cells assessed as effect on complete blood count at 150 mg/kg, sc qd administered for 5 days started on day 9 post 75 mg/kg dosing; type: organism-based, HCT-116; conditions: in vivo, 120 h
NCI-H2030 = assay: Cytotoxicity against human NCI-H2030 cells after 72 hrs by CellTiter96 AQueous one solution cell proliferation assay; type: functional, cell-based
HCC827 = assay: Cytotoxicity against human HCC827 cells after 72 hrs by CellTiter96 AQueous one solution cell proliferation assay; type: functional, cell-based
LoVo = assay: Cytotoxicity against human LoVo cells after 72 hrs by CellTiter96 AQueous one solution cell proliferation assay; type: functional, cell-based
DU-145 = assay: Cytotoxicity against human DU145 cells after 72 hrs by CellTiter96 AQueous one solution cell proliferation assay; type: functional, cell-based
NCI-H2122 = assay: Cytotoxicity against human NCI-H2122 cells after 72 hrs by CellTiter96 AQueous one solution cell proliferation assay; type: functional, cell-based
Caov-3 = assay: Cytotoxicity against human Caov3 cells after 72 hrs by CellTiter96 AQueous one solution cell proliferation assay; type: functional, cell-based
Exportin-1 [13] = biological target: T1, Exportin-1; assay: Inhibition of Crm1 in human MM1S cells assessed as potentiation of bortezomib-induced antiproliferative activity by measuring cell survival at 30 to 300 nM after 72 hrs by MTT assay; type: cell-based

T1 sequence (O14980 whole entry): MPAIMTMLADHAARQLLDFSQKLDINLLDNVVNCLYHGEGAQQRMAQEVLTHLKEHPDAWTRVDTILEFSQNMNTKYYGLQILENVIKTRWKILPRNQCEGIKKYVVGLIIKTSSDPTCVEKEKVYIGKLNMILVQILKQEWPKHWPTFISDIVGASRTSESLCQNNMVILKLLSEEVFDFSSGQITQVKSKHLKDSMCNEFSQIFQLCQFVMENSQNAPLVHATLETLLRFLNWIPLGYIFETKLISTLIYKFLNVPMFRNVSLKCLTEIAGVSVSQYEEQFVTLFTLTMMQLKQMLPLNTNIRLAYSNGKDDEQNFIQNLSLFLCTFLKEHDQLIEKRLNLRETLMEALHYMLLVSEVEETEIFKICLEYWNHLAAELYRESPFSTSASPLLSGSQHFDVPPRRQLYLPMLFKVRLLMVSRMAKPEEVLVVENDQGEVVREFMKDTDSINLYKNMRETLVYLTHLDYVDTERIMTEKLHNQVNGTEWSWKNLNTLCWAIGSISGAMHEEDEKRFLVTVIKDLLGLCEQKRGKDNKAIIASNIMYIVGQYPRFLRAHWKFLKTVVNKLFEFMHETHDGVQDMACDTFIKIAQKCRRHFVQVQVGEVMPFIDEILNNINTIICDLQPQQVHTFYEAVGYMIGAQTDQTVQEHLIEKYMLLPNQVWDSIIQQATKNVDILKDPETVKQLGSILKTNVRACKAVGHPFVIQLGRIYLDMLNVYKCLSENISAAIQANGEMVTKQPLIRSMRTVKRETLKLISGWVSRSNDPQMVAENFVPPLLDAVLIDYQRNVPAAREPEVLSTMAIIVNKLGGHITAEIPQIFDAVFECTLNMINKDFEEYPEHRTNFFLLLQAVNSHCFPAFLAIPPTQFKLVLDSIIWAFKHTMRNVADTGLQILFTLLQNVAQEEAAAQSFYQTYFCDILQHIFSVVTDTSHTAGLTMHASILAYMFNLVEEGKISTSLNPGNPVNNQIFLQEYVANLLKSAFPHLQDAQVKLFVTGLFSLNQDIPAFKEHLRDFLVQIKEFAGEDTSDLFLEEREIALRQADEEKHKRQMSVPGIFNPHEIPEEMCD

With CC(C)OC(=O)/C=C\n1cnc(-c2ccc(Cl)cc2)n1 the Activity (NCI-H226) was “Active”, the Activity (HeLa) was “Active” and the Activity (HCT-116) was “Active”. The inhibition (Exportin-1 [1]) was “Active”, the inhibition (Exportin-1 [2]) was “Active” and the Activity (NCI-H1838) was “Active”. For the same compound, the Activity (RPMI18226) was “Active”, the Activity (MG-63) was “Active” and the Activity (786-0) was “Active”. For the same compound, the Activity [3] was “Non-Toxic”, the IC50 (Exportin-1 [4]) was ≤ 1 µM and the Activity (4T1) was “Active”. The Activity (DLD-1) was “Active”, the inhibition (Exportin-1 [5]) was “Active” and the Activity (MM1R) was “Active”. For the same compound, the Activity (MCF7) was “Active”, the Activity (HS-Sultan) was “Active” and the TGI [6] was 60%. The inhibition in vivo at 75 mg/kg [7] was 31%, the Activity (HCC4006) was “Active” and the TGI (MM1.S [8]) was “Active”. For the same compound, the Activity (NCI-H460) was “Active”, the Activity (COLO 320) was “Active” and the Activity (Homo sapiens [9]) was “Active”. The Activity (HPAC) was “Active”, the Activity (HCT-15) was “Active” and the Activity (SW-620) was “Active”. The Activity (WiDr) was “Active”, the Activity (HCT-8) was “Active” and the Activity (PC-3) was “Active”. The Activity (Jurkat) was “Active”, the Activity (Homo sapiens [10]) was “Active” and the TGI (MM1.S [11]) was “Active”. The Activity (BL-41) was “Active”, the Activity (LS180) was “Active” and the Activity (SW480) was “Active”. For the same compound, the Activity (NCI-H520) was “Active”, the Activity [12] was “Non-Toxic” and the Activity (NCI-H2030) was “Active”. For the same compound, the Activity (HCC827) was “Active”, the Activity (LoVo) was “Active” and the Activity (DU-145) was “Active”. The Activity (NCI-H2122) was “Active”, the Activity (Caov-3) was “Active” and the inhibition (Exportin-1 [13]) was “Active”.
